Experiments:
Type in all cases: in vivo, human
RA patients [1] = test: Plasma Serum Amyloid A (SAA) concentration (ELISA), Study 4; conditions: for SAA level, 4 weeks CFB: 4 weeks change from baseline
Description: (§1) Randomized double-blind, placebo-controlled add on study in subjects with active RA who have an inadequate response to MTX monotherapy, in combination with methotrexate, administered for 4 weeks in the treatment of subjects with active rheumatoid arthritis who have an inadequate response to methotrexate alone.
(§2) Compound 1 (dosed as a [Compound 1:HCl:3H2O]) capsules administered orally in 30 mg, 75 mg, 150 mg, or 300 mg doses per day for 4 weeks.
Plasma SAA concentration was determined using a commercial available Novex ELISA kit from Life technologies (Bleiswijk, The Netherlands) according to manufacturer's instruction. Catalogue number KHA0011, lot number used: 1433688A.

RA patients [2] = test: [HDL] determination, Study 4 (RA patients, 4 weeks, add-on to MTX)
Description: Randomized, double-blind, placebo-controlled, multicenter, phase II study of Compound 1 (dosed as a [Compound 1:HCl:3H2O]) to compare four dose regimens versus placebo, in combination with methotrexate, administered for 4 weeks in the treatment of subjects with active rheumatoid arthritis who have an inadequate response to methotrexate alone.
as §1
90 subjects randomized to one of 4 dose regimens of Compound 1 (dosed as a [Compound 1:HCl:3H2O]) or placebo, on top of their stable dose of MTX. Thus, each of the 4 different doses of Compound 1 (dosed as a [Compound 1:HCl:3H2O]) and placebo groups has 18 subjects.
as §2
This assay relies on a homogeneous enzymatic colorimetric test. In the presence of magnesium ions, dextran sulfate selectively forms water-soluble complexes with LDL, VLDL and chylomicrons which are resistant to PEG-modified enzymes.
The cholesterol concentration of [HDL]-cholesterol is determined enzymatically by cholesterol esterase and cholesterol oxidase coupled with PEG to the amino groups (approx. 40%).
In the presence of peroxidase, the hydrogen peroxide generated reacts with 4-amino-antipyrine and Sodium N-(2-hydroxy-3-sulfopropyl)-3,5-dimethoxyaniline (HSDA) to form a purple-blue dye. The color intensity of this dye is directly proportional to the cholesterol concentration and is measured photometrically.
Human serum and plasma samples [HDL] determination was done on a Roche/Hitachi Cobas c 701/702 system which automatically calculate the analyte concentration of each sample. Samples containing precipitates are centrifuged before performing the assay.

RA patients [3] = test: Paraoxonase assay (PON1), Study 4; conditions: for PON1 level, 4 weeks CFB: 4 weeks change from baseline
Description: as §1, §2
Paraoxanases are involved, in particular PON1 have a role in preventing atherosclerosis.
The PON assay is performed according to published protocol by Mackness et al. (Mackness et al., 2003).

RA patients [4] = test: ApoB level (Selectra autoanalyzer), Study 4; conditions: for ApoB level, 4 weeks CFB: 4 weeks change from baseline
Description: as §1, §2
ApoAI, and ApoB were measured on the Selectra autoanalyzer (Sopachem BV, 44-RI Straat 33, 4051 AP Ochten, The Netherlands). All assays were commercially available from DiaSys Diagnostic Systems GmbH, Alte Strasse 9, 65558 Holzheim, Germany.

O=C(Nc1nc2cccc(-c3ccc(CN4CCS(=O)(=O)CC4)cc3)n2n1)C1CC1 [Compound 1, cyclopropanecarboxylic acid {5-[4-(1,1-dioxo-thiomorpholin-4-ylmethyl)-phenyl]-[1,2,4]triazolo[1,5-a]pyridin-2yl}-amide]
SAA level, 4 weeks CFB (RA patients [1]; 30 mg q.d.): −15.4% | SAA level, Baseline (RA patients [1]; 30 mg q.d.): 935.4 ng/mL | SAA level, week 4 (RA patients [1]; 30 mg q.d.): 436.2 ng/mL | SAA level, 4 weeks CFB (RA patients [1]; 75 mg q.d.): −13.5% | SAA level, Baseline (RA patients [1]; 75 mg q.d.): 883.7 ng/mL | SAA level, week 4 (RA patients [1]; 75 mg q.d.): 201.3 ng/mL | SAA level, 4 weeks CFB (RA patients [1]; 150 mg q.d.): −56.7% | SAA level, Baseline (RA patients [1]; 150 mg q.d.): 621.3 ng/mL | SAA level, week 4 (RA patients [1]; 150 mg q.d.): 388.5 ng/mL | SAA level, 4 weeks CFB (RA patients [1]; 300 mg q.d.): −62.0% | SAA level, Baseline (RA patients [1]; 300 mg q.d.): 555.6 ng/mL | SAA level, week 4 (RA patients [1]; 300 mg q.d.): 43.2 ng/mL | [HDL] levels (RA patients [2]; 30 mg q.d., Baseline): 1.40 mmol/L | [HDL] levels (RA patients [2]; 30 mg q.d., week 1): 1.44 mmol/L | [HDL] levels (RA patients [2]; 30 mg q.d., week 2): 1.43 mmol/L | [HDL] levels (RA patients [2]; 30 mg q.d., week 3): 1.38 mmol/L | [HDL] levels (RA patients [2]; 30 mg q.d., week 4): 1.43 mmol/L | [HDL] % Mean % variation vs baseline after 4 weeks (RA patients [2]; 30 mg qd): 4% | [HDL] levels (RA patients [2]; 75 mg q.d., Baseline): 1.46 mmol/L | [HDL] levels (RA patients [2]; 75 mg q.d., week 1): 1.46 mmol/L | [HDL] levels (RA patients [2]; 75 mg q.d., week 2): 1.50 mmol/L | [HDL] levels (RA patients [2]; 75 mg q.d., week 3): 1.56 mmol/L | [HDL] levels (RA patients [2]; 75 mg q.d., week 4): 1.57 mmol/L | [HDL] % Mean % variation vs baseline after 4 weeks (RA patients [2]; 75 mg qd): 11% | [HDL] levels (RA patients [2]; 150 mg q.d., Baseline): 1.46 mmol/L | [HDL] levels (RA patients [2]; 150 mg q.d., week 1): 1.45 mmol/L | [HDL] levels (RA patients [2]; 150 mg q.d., week 2): 1.47 mmol/L | [HDL] levels (RA patients [2]; 150 mg q.d., week 3): 1.55 mmol/L | [HDL] levels (RA patients [2]; 150 mg q.d., week 4): 1.53 mmol/L | [HDL] % Mean % variation vs baseline after 4 weeks (RA patients [2]; 150 mg qd): 4% | [HDL] levels (RA patients [2]; 300 mg q.d., Baseline): 1.36 mmol/L | [HDL] levels (RA patients [2]; 300 mg q.d., week 1): 1.55 mmol/L | [HDL] levels (RA patients [2]; 300 mg q.d., week 2): 1.73 mmol/L | [HDL] levels (RA patients [2]; 300 mg q.d., week 3): 1.75 mmol/L | [HDL] levels (RA patients [2]; 300 mg q.d., week 4): 1.84 mmol/L | [HDL] % Mean % variation vs baseline after 4 weeks (RA patients [2]; 300 mg qd): 38% | PON1 level, 4 weeks CFB (RA patients [3]; 30 mg q.d.): 4.2% | PON1 level, 4 weeks CFB (RA patients [3]; 75 mg q.d.): 11.2% | PON1 level, Baseline (RA patients [3]; 75 mg q.d.): 69.3 ng/mL | PON1 level, week 4 (RA patients [3]; 75 mg q.d.): 73.7 ng/mL | PON1 level, 4 weeks CFB (RA patients [3]; 150 mg q.d.): 43.4% | PON1 level, Baseline (RA patients [3]; 150 mg q.d.): 52.5 ng/mL | PON1 level, week 4 (RA patients [3]; 150 mg q.d.): 70.6 ng/mL | PON1 level, 4 weeks CFB (RA patients [3]; 300 mg q.d.): 31.0% | PON1 level, week 4 (RA patients [3]; 300 mg q.d.): 77.5 ng/mL | ApoB level, 4 weeks CFB (RA patients [4]; 30 mg q.d.): 19.5% | ApoB level, Baseline (RA patients [4]; 30 mg q.d.): 98.8 mg/dL | ApoB level, week 4 (RA patients [4]; 30 mg q.d.): 111 mg/dL | ApoB level, 4 weeks CFB (RA patients [4]; 75 mg q.d.): −1.1% | ApoB level, Baseline (RA patients [4]; 75 mg q.d.): 98.5 mg/dL | ApoB level, week 4 (RA patients [4]; 75 mg q.d.): 94.7 mg/dL | ApoB level, 4 weeks CFB (RA patients [4]; 150 mg q.d.): −1.8% | ApoB level, Baseline (RA patients [4]; 150 mg q.d.): 93.8 mg/dL | ApoB level, week 4 (RA patients [4]; 150 mg q.d.): 90.7 mg/dL | ApoB level, 4 weeks CFB (RA patients [4]; 300 mg q.d.): 6.8% | ApoB level, Baseline (RA patients [4]; 300 mg q.d.): 89.4 mg/dL | ApoB level, week 4 (RA patients [4]; 300 mg q.d.): 95.6 mg/dL

Source: patent US10376520B2, “Methods for the treatment of cardiovascular disorders” (Galapagos NV, priority 2015, dated 2019)
